Literature values, collected in patent US11344598B2, “Herbal nanoformulations for treating psoriasis and other skin conditions” (Sirbal Ltd., priority 2016, dated 2022).

Conditions: in words

solubility in water: insoluble in water
Structure (SMILES): CCC(=O)O[C@]1(C(=O)CCl)[C@@H](C)C[C@H]2[C@@H]3CCC4=CC(=O)C=C[C@]4(C)[C@@]3(F)[C@@H](O)C[C@@]21C [Clobetasol propionate, clobetasol propionate]
